ChEMBL document CHEMBL1129902, “Bioactivatable derivatives of 8-substituted cAMP-analogues” (Bioorg Med Chem Lett, 1997)

Tests used:
[1] = Lipophilicity relative to cAMP (log Kw=1); type: physicochemical
[2] = biological target: cAMP-dependent protein kinase (PKA) (Homo sapiens, UniProt P22694+P17612+P22612); assay: Activation of cAMP dependent protein kinase (PKA); type: functional

Structure (SMILES) | Log Kw [1] | EC50 [2]
CC(=O)OCOP1(=O)OC[C@@H]2O[C@@H](n3c(NCCO)nc4c(N)ncnc43)[C@H](O)[C@@H]2O1 (some centres not stated) | > 2 | 
CC(=O)OCOP1(=O)OC[C@@H]2O[C@@H](n3c(Sc4ccc(Cl)cc4)nc4c(N)ncnc43)[C@H](O)[C@@H]2O1 (some centres not stated) | > 4 | 0.15 µM
CC(=O)OCOP1(=O)OC[C@@H]2O[C@@H](n3c(N4CCCCC4)nc4c(N)ncnc43)[C@H](O)[C@@H]2O1 (some centres not stated) | > 3.5 | 10 µM
CC(=O)OCOP1(=O)OC[C@@H]2O[C@@H](n3c(Br)nc4c(N)ncnc43)[C@H](O)[C@@H]2O1 (some centres not stated) | > 2 | 
Nc1ncnc2c1nc(Sc1ccc(Cl)cc1)n2[C@@H]1O[C@@H]2COP(=O)(O)O[C@H]2[C@H]1O |  | 20 µM
